Measurements as given in patent US4695570A, “Antiviral compound use” (Burroughs Wellcome Co., priority 1985, dated 1987).
Converted amounts (≈) assume the structure as drawn.

Experiments:
adenosine deaminase = details: depends on adenosine deaminase; Good and de Miranda 1982; cited from earlier work
[1] = test system: bovine milk xanthine oxidase; experiment: Enzymatic conversion of 6-deoxyacyclovir to acyclovir by bovine milk xanthine oxidase (Example 2); assay type: biochemical; details: 24 hours, 43.6 μM substrate, pH 6.8, 25° C, atmospheric oxygen; UV monitoring
Procedure: A solution (20 μL) of a purified bovine milk xanthine oxidase containing 1.06 units (nmoles of xanthine oxidized per minute) of activity was added to 500 μL of a solution 43.6 μM with respect to 6-deoxyacyclovir, 0.05M with respect to potassium phosphate and 0.13 mM with respect to ethylenediaminetetraacetic acid at pH 6.8 and 25° C. The reaction mixture was equilibrated with atmospheric oxygen, and the oxygen served as the electron acceptor. […] The indentity of acyclovir as the product of the reaction was confirmed by its NMR spectrum.

[2] = test system: xanthine oxidase from bovine milk; experiment: Enzyme studies: rate of oxidation by xanthine oxidase from bovine milk; assay type: biochemical
Source text: The discovery that the 6-hydrogen purine of formula (I) above can be readily converted into its corresponding 6-hydroxy analogue is surprising since in previous studies with xanthine oxidase from bovine milk (H. Lettre et al. (1967) Biochem. Pharmacol., 16, 1747-1755; T. A. Krenitsky et al. (1972) Arch. Biophys., 150, 585-599) it was shown that 9-substitution obliterates or greatly diminishes the rate at which a variety of purines are oxidized.

[3] = Oral absorption and acyclovir blood/plasma levels in rats; assay type: in vivo
Procedure: The following experiments were carried out to determine the urinary excretion and plasma levels of acyclovir after oral dosing of rats with acyclovir, 6-deoxyacyclovir and the 6-amino analogue thereof i.e. 2,6-diamino-9-(2-hydroxyethoxymethyl)purine, hereinafter referred to as aminoacyclovir.
Long Evans male rats were dosed by intragastric needle with the drug and placed in metabolic cages which separated urine from feces. The collected urine and plasma samples were analyzed for acyclovir content by a radioimmunoassay (Quinn, R. P., et al., Anal. Biochem., 98, 319 (1979)).

[4] = test system: xanthine oxidase/dehydrogenase or aldehyde oxidase
Source text: (§1) It is thus possible to synthesize acyclovir in the body (i.e. in vivo) by administering 6-deoxyacyclovir to mammals including humans wherein the 6-deoxyacyclovir is acted upon by xanthine oxidase/dehydrogenase or aldehyde oxidase in the body and is thereby converted into acyclovir. […] Oxygen or other appropriate electron acceptors such as ferricyanide ion or methylene blue may serve as the oxidizing agent. Microorganisms which contain or produce xanthine oxidase/dehydrogenase may be used to effect the conversion of 6-deoxyacyclovir to acyclovir.

[5] = test system: xanthine oxidase/dehydrogenase or aldehyde oxidase; experiment: Ex vivo (in vitro) enzymatic oxidation to acyclovir; assay type: biochemical
Source text: as §1

Beagle dogs = experiment: Toxicity study in Beagle dogs, per os; assay type: in vivo; details: 40 mg/kg/day, once daily 5 days
Procedure: Two male and 2 female Beagle dogs were given 6-deoxyacyclovir per os (once daily for 5 consecutive days) at a dose level of 40 mg/kg/day. There were no effects in 1 male and 1 female sacrificed at the end of the treatment period or in 1 male and 1 female sacrificed after a 2 week post-dose period.

[6] = Water solubility at 25° C; assay type: physicochemical
[7] = test system: herpes viruses such as herpes simplex; details: cited from earlier work
[8] = cited from earlier work

## Nc1nc(N)c2ncn(COCCO)c2n1 [aminoacyclovir, 2,6-diamino-9-(2-hydroxyethoxymethyl)purine]
Adenosine deaminase
  conversion to acyclovir in vivo: depends on adenosine deaminase for conversion to acyclovir in vivo

## Nc1ncc2ncn(COCCO)c2n1 [6-deoxyacyclovir, 2-Amino-9-(2-hydroxyethoxymethyl)purine]
[1]
  conversion to acyclovir: nearly complete conversion to acyclovir
[2]
  rate of oxidation relative to the 9-unsubstituted purine: at a faster rate than the 9-unsubstituted purine
[3]
  blood levels of acyclovir compared with oral acyclovir itself: higher blood levels of acyclovir are obtainable with 6-deoxyacyclovir than with acyclovir itself
[3]; rats
  absorption from the gastro-intestinal tract and plasma levels of acyclovir: efficient absorption from the gastro-intestinal tract and high plasma levels of the corresponding acyclovir
[4]
  conversion in vivo into acyclovir: readily converted in vivo
[5]
  ex vivo (in vitro) enzymatic oxidation to acyclovir: demonstrated that acyclovir may be synthesized
Beagle dogs; after 2 week post-dose period
  effects in toxicity study: no effects
Beagle dogs; end of treatment
  effects in toxicity study: no effects

## Nc1nc2c(ncn2COCCO)c(=O)[nH]1 [acyclovir, 9-(2-hydroxyethoxymethyl)guanine]
[6]
  solubility in water: 1250 µg/mL (≈ 5.55 mM)
[7]; herpes viruses such as herpes simplex
  activity against herpes viruses: particularly good activity against herpes viruses
[7]; topical or parenteral
  effectiveness upon topical or parenteral administration: especially effective upon topical or parenteral administration
[8]
  absorption upon oral administration: only moderately well absorbed upon oral administration
